According to patent US12091405B2, “Substituted pyrazole compounds as indoleamine 2,3-dioxygenase inhibitors” (Merck Sharp & Dohme LLC, priority 2018, dated 2024):

Legend:
IDO1 [1] = biological target: T1, IDO1 (Homo sapiens, UniProt P14902); assay: IDO1 Cellular Assay in HeLa Cells Stimulated with IFNγ; format: cell-based; details: IFNγ 100 ng/mL, 300 uM L-tryptophan, about 48 hours, fluorescence readout, read-out: IDO1 HELA Cell Assay, IC50
IDO1 [2] = biological target: T1, IDO1; assay: IDO1 Human Whole Blood Assay; format: cell-based; parameters: Human whole blood was drawn in sodium heparin coated tubes from healthy internal donors; from tissue; host or cells: human whole blood from healthy donors, stimulated with LPS and IFNγ; details: LPS and IFNγ 100 ng/mL, overnight (18 h), kynurenine by LC/MS/MS
Experimental: IDO1 Human Whole Blood Assay
Compounds to be tested were serially diluted in ten 3-fold steps in DMSO starting from 10 mM. 3 μL of compound dilutions or DMSO alone were then dispensed from the dilution plate into a polypropylene 96-well assay plate containing 97 μL of RPMI medium using an Echo 555 acoustic liquid handler (Labcyte). LPS and IFNγ was prepared in RPMI medium to a 10× of final conc. (1000 ng/mL), final concentration is 100 ng/mL.
Human whole blood was drawn in sodium heparin coated tubes from healthy internal donors. 240 μL of blood was transferred to each of the wells of a v-bottom 96 well plate. 30 μL of compound was transferred from intermediate dilution plate, and incubated for 15 min. 30 μL from stimulants was then transferred to blood and mixed thoroughly. Plate was covered with breathable membrane and incubated at 37° C. for overnight (18 h).
On day 2, isotope labeled standard solutions of kynurenine and tryptophan was made in water at 10× concentration and 30 μL was added to the blood at 3 μM final concentration. The assay plates were centrifuged at 300×G for 10 min with no brake to separate plasma from red blood cells. 60 μL of plasma samples was removed without disturbing red blood cells. Plasma was diluted with RPMI in 1:1 ratio and proteins were precipitated out with two volumes of Acetonitrile. The plates were centrifuged at 4000×G for 60 min. 20 μL of supernatant was carefully transferred to a 384 well plate containing 40 μL of 0.1% formic acid in water and analyzed by LC/MS/MS.
LC/MS/MS analyses were performed using Thermo Fisher's LX4-TSQ Quantum Ultra system. This system consists of four Agilent binary high-performance liquid chromatography (HPLC) pumps and a TSQ Quantum Ultra triple quadrupole MS/MS instrument. For each sample, 5 μL were injected onto an Atlantis T3 column (2.1 mm×150 mm, 3 μm particle size) from Waters. The mobile phase gradient pumped at 0.8 mL/min was used to elute the analytes from the column at 25 EC. The elution started at 0% B increasing linearly to 25% B at 6.5 min, holding at 25% for 1 min, re-equilibrating to 10 min. Mobile phase A consisted of 0.1% formic acid in water. Mobile phase B consisted of 0.1% of formic acid in acetonitrile. Data were acquired in positive mode using a HESI interface. The operational parameters for the TSQ Quantum Ultra instrument were a spray voltage of 4000 V, capillary temperature of 380° C., vaporizer temperature 400° C., shealth gas 60 arbitrary units, Aux gas 20 arbitrary units, tube lens 85 and collision gas 1.2 mTorr. SRM chromatograms of kynurenine (Qi: 209.2>Q3:94.0) and internal standard (Qi: 215.3>Q3:98.2) were collected for 90 sec. The peak area was integrated by Xcalibur Quan software. The ratios between the kynurenine generated in the reaction and 2D6-Kynurenine spiked-in internal standard were used to generate percentage inhibition and IC50 values. Compounds were titrated and IC50's were calculated by 4 parameter sigmoidal curve fitting formula.
The biological activity data of selective compounds using the IDO1 human whole blood assay described above are summarized in the table below.

T1 sequence (P14902 whole entry): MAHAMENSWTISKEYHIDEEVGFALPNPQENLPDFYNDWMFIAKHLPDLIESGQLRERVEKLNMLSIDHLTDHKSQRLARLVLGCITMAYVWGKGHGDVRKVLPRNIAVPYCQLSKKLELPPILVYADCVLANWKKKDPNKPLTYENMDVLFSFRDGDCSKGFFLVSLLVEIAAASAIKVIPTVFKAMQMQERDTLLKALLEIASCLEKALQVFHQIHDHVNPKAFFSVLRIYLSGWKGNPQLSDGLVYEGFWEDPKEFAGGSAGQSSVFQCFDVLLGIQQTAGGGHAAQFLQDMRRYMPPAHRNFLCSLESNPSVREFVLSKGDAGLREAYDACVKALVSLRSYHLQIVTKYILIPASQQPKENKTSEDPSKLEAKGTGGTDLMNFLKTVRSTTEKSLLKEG

Row | IC50 (IDO1 [1]) [nM] | IC50 (IDO1 [2]) [nM] | SMILES
1 | 6.4 | 269 | Cc1c(F)cccc1C1CCN(C(=O)Cn2nc(C(=O)N3C[C@@H](C)O[C@@H](C)C3)c3c2CCC3)CC1 [Example 173, 2-{3-[(2R,6S)-2,6-dimethylmorpholine-4-carbonyl]-5,6-dihydrocyclopenta[c]pyrazol-1(4H)-yl}-1-[4-(3-fluoro-2-methylphenyl)piperidin-1-yl]ethan-1-one]
2 | 1.6 | 192 | Cc1cccc(C2CCN(C(=O)Cn3nc(C(=O)N4CC[C@@H](O)[C@@H](F)C4)c4c3C[C@H]3C[C@@H]43)CC2)c1C [Example 25, 1-[4-(2,3-dimethylphenyl)piperidin-1-yl]-2-{(3bR,4aR)-3-[(3S,4R)-3-fluoro-4-hydroxypiperidine-1-carbonyl]-3b,4,4a,5-tetrahydro-1H-cyclopropa[3,4]cyclopenta[1,2-c]pyrazol-1-yl}ethan-1-one]
3 | 5.1 | 87.6 | Cc1cccc(C2CCN(C(=O)Cn3nc(C(=O)N4CCC(O)(CF)CC4)c4c3CCC4)CC2)c1C [Example 31, 1-[4-(2,3-dimethylphenyl)-1-piperidyl]-2-[3-[4-(fluoromethyl)-4-hydroxy-piperidine-1-carbonyl]-5,6-dihydro-4H-cyclopenta[c]pyrazol-1-yl]ethanone]
4 | 0.9 | 219 | Cc1cccc(C2CCN(C(=O)Cn3nc(C(=O)N4CC[C@@H](O)[C@H](C)C4)c4c3C[C@H]3C[C@@H]43)CC2)c1C [Example 19, 1-[4-(2,3-dimethylphenyl)piperidin-1-yl]-2-{(3bR,4aR)-3-[(3R,4R)-4-hydroxy-3-methylpiperidine-1-carbonyl]-3b,4,4a,5-tetrahydro-1H-cyclopropa[3,4]cyclopenta[1,2-c]pyrazol-1-yl}ethan-1-one]
5 | 3.2 | 1210 | Cc1cccc(C2(F)CCN(C(=O)Cn3nc(C(=O)N4C[C@@H](C)O[C@@H](C)C4)c4c3CCC4)CC2)c1C [Example 7, 2-(3-((2R,6S)-2,6-dimethylmorpholine-4-carbonyl)-5,6-dihydrocyclopenta[c]pyrazol-1(4H)-yl)-1-(4-(2,3-dimethylphenyl)-4-fluoropiperidin-1-yl)ethanone]
6 | 1.7 | 434 | Cc1c(F)ccc(C2CCN(C(=O)Cn3nc(C(=O)N4C[C@@H](C)O[C@@H](C)C4)c4c3CCC4)CC2)c1C [Example 172, 2-{3-[(2R,6S)-2,6-dimethylmorpholine-4-carbonyl]-5,6-dihydrocyclopenta[c]pyrazol-1(4H)-yl}-1-[4-(4-fluoro-2,3-dimethylphenyl)piperidin-1-yl]ethan-1-one]
7 | 2.9 | 1320 | Cc1cc(C2CCN(C(=O)Cn3nc(C(=O)N4C[C@@H](C)O[C@@H](C)C4)c4c3CCC4)CC2)ccc1Cl [Example 81, 1-[4-(4-chloro-3-methylphenyl)piperidin-1-yl]-2-{3-[(2R,6S)-2,6-dimethylmorpholine-4-carbonyl]-5,6-dihydrocyclopenta[c]pyrazol-1(4H)-yl}ethan-1-one]
8 | 3.5 | 488 | Cc1cccc(C2CCN(C(=O)Cn3nc(C(=O)N4CC[C@@H](O)[C@@H](F)C4)c4c3CCC4)CC2)c1C [Example 60, 1-(4-(2,3-dimethylphenyl)piperidin-1-yl)-2-(3-((3S,4R)-3-fluoro-4-hydroxypiperidine-1-carbonyl)-5,6-dihydrocyclopenta[c]pyrazol-1(4H)-yl)ethanone]
9 | 2.3 | 58.9 | Cc1cccc(C2CCN(C(=O)Cn3nc(C(=O)N4CCN(C(=O)CO)CC4)c4c3C[C@H]3C[C@@H]43)CC2)c1C [Example 18, 1-[4-(2,3-dimethylphenyl)piperidin-1-yl]-2-{(3bR,4aR)-3-[4-(hydroxyacetyl)piperazine-1-carbonyl]-3b,4,4a,5-tetrahydro-1H-cyclopropa[3,4]cyclopenta[1,2-c]pyrazol-1-yl}ethan-1-one]
10 | 3.5 | 435 | Cc1c(Cl)cccc1C1CCN(C(=O)Cn2nc(C(=O)N3C[C@@H](C)O[C@@H](C)C3)c3c2CCC3)CC1 [Example 82, 1-[4-(3-chloro-2-methylphenyl)piperidin-1-yl]-2-{3-[(2R,6S)-2,6-dimethylmorpholine-4-carbonyl]-5,6-dihydrocyclopenta[c]pyrazol-1(4H)-yl}ethan-1-one]
11 | 7.3 | 733 | Cc1cccc(C2CCN(C(=O)Cn3nc(C(=O)N4CC[C@H](O)[C@H](F)C4)c4c3CCC4)CC2)c1C [Example 44, 1-(4-(2,3-dimethylphenyl)piperidin-1-yl)-2-(3-((3R,4S)-3-fluoro-4-hydroxypiperidine-1-carbonyl)-5,6-dihydrocyclopenta[c]pyrazol-1(4H)-yl)ethanone]
12 | 1 | 59.6 | Cc1c(Cl)cccc1C1CCN(C(=O)Cn2nc(C(=O)N3CCN(C(=O)CO)CC3)c3c2C[C@H]2C[C@@H]32)CC1 [Example 17, 1-(4-(3-chloro-2-methylphenyl)piperidin-1-yl)-2-((3bR,4aR)-3-(4-(2-hydroxyacetyl)piperazine-1-carbonyl)-3b,4,4a,5-tetrahydro-1H-cyclopropa[3,4]cyclopenta[1,2-c]pyrazol-1-yl)ethanone]
13 | 9.9 | – | Cc1cc(F)cc(C2CCN(C(=O)Cn3nc(C(=O)N4C[C@@H](C)O[C@@H](C)C4)c4c3CCC4)CC2)c1 [Example 90, 2-{3-[(2R,6S)-2,6-dimethylmorpholine-4-carbonyl]-5,6-dihydrocyclopenta[c]pyrazol-1(4H)-yl}-1-[4-(3-fluoro-5-methylphenyl)piperidin-1-yl]ethan-1-one]
14 | 28.9 | – | COc1c(C)cc(C2CCN(C(=O)Cn3nc(C(=O)N4C[C@@H](C)O[C@@H](C)C4)c4c3CCC4)CC2)cc1C [Example 102, 2-{3-[(2R,6S)-2,6-dimethylmorpholine-4-carbonyl]-5,6-dihydrocyclopenta[c]pyrazol-1(4H)-yl}-1-[4-(4-methoxy-3,5-dimethylphenyl)piperidin-1-yl]ethan-1-one]
15 | 107 | – | CCc1ccc(C2CCN(C(=O)Cn3nc(C(=O)N4C[C@@H](C)O[C@@H](C)C4)c4c3CCC4)CC2)cc1 [Example 146, 2-{3-[(2R,6S)-2,6-dimethylmorpholine-4-carbonyl]-5,6-dihydrocyclopenta[c]pyrazol-1(4H)-yl}-1-[4-(4-ethylphenyl)piperidin-1-yl]ethan-1-one]
16 | 329 | – | C[C@@H]1CN(C(=O)c2nn(CC(=O)N3CCC(c4ccc(C(F)(F)F)c(Cl)c4)CC3)c3c2CCC3)C[C@H](C)O1 [Example 169, 1-{4-[3-chloro-4-(trifluoromethyl)phenyl]piperidin-1-yl}-2-{3-[(2R,6S)-2,6-dimethylmorpholine-4-carbonyl]-5,6-dihydrocyclopenta[c]pyrazol-1(4H)-yl}ethan-1-one]
17 | 57 | – | C[C@@H]1CN(C(=O)c2nn(CC(=O)N3CCC(c4ccc(F)cc4Cl)CC3)c3c2CCC3)C[C@H](C)O1 [Example 124, 1-[4-(2-chloro-4-fluorophenyl)piperidin-1-yl]-2-{3-[(2R,6S)-2,6-dimethylmorpholine-4-carbonyl]-5,6-dihydrocyclopenta[c]pyrazol-1(4H)-yl}ethan-1-one]
